Test results published in patent US9278922B2 (ABBVIE INC., priority 2009, dated 2016).

System: HCV 1b-Con-1 replicon
Assay: HCV 1b-Con-1 replicon assay (luciferase reporter gene, HuH-7 cells)
Assay type: cell-based, Hepatitis C virus (HCV) genotype 1b-Con1
Settings: Hepatitis C virus, Huh-7, luciferase reporter gene activity in the replicon, in the presence of 5% FBS

| Structure (SMILES) | EC50 |
| --- | --- |
| CCN(CC)[C@@H](C(=O)N1CCC[C@H]1C(=O)Nc1ccc(CN(Cc2ccc(NC(=O)[C@@H]3CCCN3C(=O)[C@@H](NC(=O)OC)C(C)(C)C)cc2)c2ccc(F)cc2)cc1)c1ccccc1 [Example 82, N-(methoxycarbonyl)-3-methyl-L-valyl-N-[4-({[4-({1-[(2R)-2-(diethylamino)-2-phenylacetyl]-L-prolyl}amino)benzyl](4-fluorophenyl)amino}methyl)phenyl]-L-prolinamide] | < 1 nM |
| COC(=O)N[C@H](C(=O)N1C[C@H](F)C[C@H]1C(=O)Nc1ccc(CN(Cc2ccc(NC(=O)[C@@H]3C[C@@H](F)CN3C(=O)[C@@H](NC(=O)OC)C(C)(C)C)cc2)c2ccc(F)cc2)cc1)C(C)(C)C [Example 103] | < 1 nM |
| CC[C@H](NC(=O)OC)C(=O)N1CCC[C@H]1C(=O)Nc1ccc(CN(Cc2ccc(NC(=O)[C@@H]3CCCN3C(=O)[C@@H](c3ccccc3)N3CCCCC3)cc2)c2ccc(F)cc2)cc1 [Example 115, methyl [(1S)-1-({(2S)-2-[(4-{[(4-fluorophenyl){4-[({(2S)-1-[(2R)-2-phenyl-2-piperidin-1-ylacetyl]pyrrolidin-2-yl}carbonyl)amino]benzyl}amino]methyl}phenyl)carbamoyl]pyrrolidin-1-yl}carbonyl)propyl]carbamate] | < 1 nM |
| O=C(Nc1ccc(CN(Cc2ccc(NC(=O)[C@@H]3CCCN3C(=O)C(c3ccccc3)N3CC[C@H](F)C3)cc2)c2ccc(F)cc2)cc1)[C@@H]1CCCN1C(=O)C(c1ccccc1)N1CC[C@H](F)C1 (stereo partly drawn) [Example 119, (2S,2′S)-N,N′-{[(4-fluorophenyl)imino]bis(methanediylbenzene-4,1-diyl)}bis(1-{[(3S)-3-fluoropyrrolidin-1-yl](phenyl)acetyl}pyrrolidine-2-carboxamide)] | < 1 nM |
| COC(=O)N[C@H](C(=O)N1CCC[C@H]1C(=O)Nc1cccc(CN(Cc2cccc(NC(=O)[C@@H]3CCCN3C(=O)[C@@H](NC(=O)OC)C(C)C)c2)c2ccc(F)cc2)c1)C(C)C [Example 146, dimethyl ([(4-fluorophenyl)imino]bis{methanediylbenzene-3,1-diylcarbamoyl(2S)pyrrolidine-2,1-diyl[(2S)-3-methyl-1-oxobutane-1,2-diyl]})biscarbamate] | 1 to 10 nM |
| COC(=O)N[C@H](C(=O)N1CCC[C@H]1C(=O)Nc1ccc(CN(Cc2ccc(NC(=O)[C@@H]3CCCN3C(=O)[C@@H](NC(=O)OC)C(C)C)cc2)c2ccc(F)cc2)cc1)C(C)C [Example 14] | < 1 nM |
| COC(=O)N[C@H](C(=O)N1CC=C[C@H]1C(=O)Nc1ccc(CN(Cc2ccc(NC(=O)[C@@H]3C=CCN3C(=O)[C@@H](NC(=O)OC)C(C)(C)C)cc2)c2ccc(F)cc2)cc1)C(C)(C)C [Example 125, methyl [(1S)-1-{[(2S)-2-{[4-({(4-fluorophenyl)[4-({[(2S)-1-{(2S)-2-[(methoxycarbonyl)amino]-3,3-dimethylbutanoyl}-2,5-dihydro-1H-pyrrol-2-yl]carbonyl}amino)benzyl]amino}methyl)phenyl]carbamoyl}-2,5-dihydro-1H-pyrrol-1-yl]carbonyl}-2,2-dimethylpropyl]carbamate] | < 1 nM |
| COC(=O)N[C@H](C(=O)N1CCC[C@H]1C(=O)Nc1ccc(CN(Cc2ccc(NC(=O)[C@@H]3CCCN3C(=O)[C@@H](NC(=O)O[C@H]3CCOC3)C(C)(C)C)cc2)c2ccccc2)cc1)C(C)(C)C [Example 59, methyl (3S)-tetrahydrofuran-3-yl[(phenylimino)bis{methanediylbenzene-4,1-diylcarbamoyl(2S)pyrrolidine-2,1-diyl[(2S)-3,3-dimethyl-1-oxobutane-1,2-diyl]}]biscarbamate] | 10 to 100 nM |
| O=C(Nc1ccc(CN(Cc2ccc(NC(=O)[C@@H]3CCCN3C(=O)OCc3ccccc3)cc2)c2ccccc2)cc1)C1CCCN1C(=O)OCc1ccccc1 (stereo partly drawn) [Example 4, (2S,2′S)-benzyl 2,2′-(4,4′-(phenylazanediyl)bis(methylene)bis(4,1-phenylene)bis(azanediyl))bis(oxomethylene)dipyrrolidine-1-carboxylate] | 10 to 100 nM |
| COC(=O)N[C@@H](C(=O)N1CCC[C@H]1C(=O)Nc1ccc(CN(Cc2ccc(NC(=O)[C@@H]3CCCN3C(=O)[C@H](NC(=O)OC)c3ccccc3)cc2)c2ccccc2)cc1)c1ccccc1 [Example 3] | < 1 nM |
| COC(=O)N[C@H](C(=O)N1C[C@H](O)C[C@H]1C(=O)Nc1ccc(CN(Cc2ccc(NC(=O)[C@@H]3C[C@@H](O)CN3C(=O)[C@@H](NC(=O)OC)C(C)(C)C)cc2)c2ccccc2)cc1)C(C)(C)C [Example 48] | 1 to 10 nM |
| COC(=O)N[C@H](C(=O)N1CCC[C@H]1c1nc2cc(CN(Cc3ccc4oc([C@@H]5CCCN5C(=O)[C@@H](NC(=O)OC)C(C)C)nc4c3)c3ccccc3)ccc2o1)C(C)C [Example 148, methyl [(1S)-1-{[(2S)-2-(5-{[({2-[(2S)-1-{(2S)-2-[(methoxycarbonyl)amino]-3-methylbutanoyl}pyrrolidin-2-yl]-1,3-benzoxazol-5-yl}methyl)(phenyl)amino]methyl}-1,3-benzoxazol-2-yl)pyrrolidin-1-yl]carbonyl}-2-methylpropyl]carbamate] | 100 to 250 nM |
| COC(=O)N[C@H](C(=O)N1CCC[C@H]1C(=O)Nc1ccc(CN(Cc2ccc(NC(=O)[C@@H]3CCCN3C(=O)[C@@H](NC(=O)OC)C(C)(C)OC)cc2)c2ccccc2)cc1)C(C)(C)OC [Example 52, dimethyl [(phenylimino)bis{methanediylbenzene-4,1-diylcarbamoyl(2S)pyrrolidine-2,1-diyl[(2S)-3-methoxy-3-methyl-1-oxobutane-1,2-diyl]}]biscarbamate] | 1 to 10 nM |
| CCN(C(C)C)[C@@H](C(=O)N1CCC[C@H]1C(=O)Nc1ccc(CN(Cc2ccc(NC(=O)[C@@H]3CCCN3C(=O)[C@@H](c3ccccc3)N(CC)C(C)C)cc2)c2ccc(F)cc2)cc1)c1ccccc1 [Example 132, (2S,2′S)-N,N′-{[(4-fluorophenyl)imino]bis(methanediylbenzene-4,1-diyl)}bis(1-{(2R)-2-[ethyl(1-methylethyl)amino]-2-phenylacetyl}pyrrolidine-2-carboxamide)] | < 1 nM |
| CCN(CC)[C@@H](C(=O)N1CCC[C@H]1C(=O)Nc1ccc(CN(Cc2ccc(NC(=O)[C@@H]3CCCN3C(=O)[C@@H](NC(=O)OC)[C@H]3CCOC3)cc2)c2ccc(F)cc2)cc1)c1ccccc1 [Example 81, methyl {(1S)-2-{(2S)-2-[(4-{[{4-[({(2S)-1-[(2R)-2-(diethylamino)-2-phenylacetyl]pyrrolidin-2-yl}carbonyl)amino]benzy}(4-fluorophenyl)amino]methyl}phenyl)carbamoyl]pyrrolidin-1-yl}-2-oxo-1-[(3R)-tetrahydrofuran-3-yl]ethyl}carbamate] | < 1 nM |
| O=C(Nc1ccc(CN(Cc2ccc(NC(=O)[C@@H]3CCCN3C(=O)C(c3ccccc3)N3CC[C@H](F)C3)cc2)c2ccc(F)cc2)cc1)[C@@H]1CCCN1C(=O)C(c1ccccc1)N1CC[C@H](F)C1 (single isomer, unassigned) [Example 120] | < 1 nM |
| COC(=O)N[C@H](C(=O)N1CCC[C@H]1C(=O)Nc1ccc(CN(Cc2ccc(NC(=O)[C@@H]3CCCN3C(=O)[C@@H](NC(=O)OC)C(C)(C)C)cc2)c2ccc(F)cc2)cc1)C(C)(C)C [Example 13, Dimethyl (2S,2′S)-1,1′-((2S,2′S)-2,2′-(4,4′-(4-fluorophenylazanediyl)bis(methylene)bis(4,1-phenylene)bis(azanediyl))bis(oxomethylene)bis(pyrrolidine-2,1-diyl))bis(3,3-dimethyl-1-oxobutane-2,1-diyl)dicarbamate] | < 1 nM |
| COC(=O)N[C@H](C(=O)N1CCC[C@H]1c1nc2ccc(CN(Cc3ccc4nc([C@@H]5CCCN5C(=O)[C@@H](NC(=O)OC)C(C)(C)O)[nH]c4c3)c3ccccc3)cc2[nH]1)C(C)(C)O [Example 34, methyl [(1S)-2-hydroxy-1-{[(2S)-2-(6-{[({2-[(2S)-1-{(2S)-3-hydroxy-2-[(methoxycarbonyl)amino]-3-methylbutanoyl}pyrrolidin-2-yl]-1H-benzimidazol-6-yl}methyl)(phenyl)amino]methyl}-1H-benzimidazol-2-yl)pyrrolidin-1-yl]carbonyl}-2-methylpropyl]carbamate] | < 1 nM |
| COC(=O)N[C@H](C(=O)N1CCC[C@H]1C(=O)Nc1ccc(CN(Cc2ccc(NC(=O)[C@@H]3CCCN3C(=O)[C@@H](NC(=O)OC)C(C)C)cc2)c2ccccc2)cc1)C(C)C [Example 1] | < 1 nM |
| CCC(O)(CC)C(C(=O)N1CCC[C@H]1C(=O)Nc1ccc(CN(Cc2ccc(NC(=O)[C@@H]3CCCN3C(=O)C(c3ccccc3)C(O)(CC)CC)cc2)c2ccc(F)cc2)cc1)c1ccccc1 (stereo partly drawn) [Example 105, (2S,2′S)-N,N′-{[(4-fluorophenyl)imino]bis(methanediylbenzene-4,1-diyl)}bis[1-(3-ethyl-3-hydroxy-2-phenylpentanoyl)pyrrolidine-2-carboxamide]] | < 1 nM |
| COC(=O)N[C@H](C(=O)N1CSC(C)(C)[C@H]1C(=O)Nc1ccc(CN(Cc2ccc(NC(=O)[C@H]3N(C(=O)[C@@H](NC(=O)OC)C(C)(C)C)CSC3(C)C)cc2)c2ccccc2)cc1)C(C)(C)C [Example 93, methyl [(1S)-1-{[(4R)-4-{[4-({[4-({[(4R)-3-{(2S)-2-[(methoxycarbonyl)amino]-3,3-dimethylbutanoyl}-5,5-dimethyl-1,3-thiazolidin-4-yl]carbonyl}amino)benzyl](phenyl)amino}methyl)phenyl]carbamoyl}-5,5-dimethyl-1,3-thiazolidin-3-yl]carbonyl}-2,2-dimethylpropyl]carbamate] | 1 to 10 nM |
| CCN(CC)[C@@H](C(=O)N1CCC[C@H]1C(=O)Nc1ccc(CN(Cc2ccc(NC(=O)[C@@H]3CCCN3C(=O)[C@@H](c3ccccc3)N3CCCC3)cc2)c2ccc(F)cc2)cc1)c1ccccc1 [Example 83, (2S)-1-[(2R)-2-(diethylamino)-2-phenylacetyl]-N-(4-{[(4-fluorophenyl){4-[({(2S)-1-[(2R)-2-phenyl-2-pyrrolidin-1-ylacetyl]pyrrolidin-2-yl}carbonyl)amino]benzyl}amino]methyl}phenyl)pyrrolidine-2-carboxamide] | < 1 nM |
| COC(=O)N[C@H](C(=O)N1CCC[C@H]1C(=O)Nc1ccc(CN(Cc2ccc(NC(=O)[C@@H]3CCCN3C(=O)[C@H](NC(=O)OC)c3ccccc3)cc2)c2ccccc2)cc1)C(C)(C)C [Example 69] | < 1 nM |
